Experimental data taken from PubChem BioAssay (NCI).
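Each compound was tested at five concentrations against cells in 96-well plates for 48 hours. TGI: total growth inhibition.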

How the values were obtained:
Test in all cases: growth of human tumour cells (NCI), 48 h
[1] = tested on: HT29 colon
[2] = tested on: SF-539 CNS
[3] = tested on: PC-3 prostate
[4] = tested on: HOP-92 NSCLC
[5] = tested on: SW-620 colon
[6] = tested on: BT-549 breast
[7] = tested on: NCI-H226 lung
[8] = tested on: TK-10 renal
[9] = tested on: HS 578T breast
[10] = tested on: MDA-N
[11] = tested on: MOLT-4 leukemia
[12] = tested on: T-47D breast
[13] = tested on: MDA-MB-231 breast
[14] = tested on: MCF7 breast
[15] = tested on: SK-OV-3 ovarian
[16] = tested on: RXF 393 renal
[17] = tested on: MDA-MB-435
[18] = tested on: SR leukemia
[19] = tested on: DLD-1 colon
[20] = tested on: KM20L2 colon

| SMILES | TGI [1] | TGI [2] | TGI [3] | TGI [4] | TGI [5] | TGI [6] | TGI [7] | TGI [8] | TGI [9] | TGI [10] | TGI [11] | TGI [12] | TGI [13] | TGI [14] | TGI [15] | TGI [16] | TGI [17] | TGI [18] | TGI [19] | TGI [20] |
| --- | --- | --- | --- | --- | --- | --- | --- | --- | --- | --- | --- | --- | --- | --- | --- | --- | --- | --- | --- | --- |
| O=C(C=P(c1ccccc1)(c1ccccc1)c1ccccc1)c1ccc(-c2cccs2)cc1 | 13.7 µM | 12.4 µM | 15.7 µM | 11.3 µM | 21.7 µM | 40.7 µM | 8.4 µM | 11.3 µM | 49.4 µM | 11.7 µM | 4.7 µM | 9.61 µM | 25.5 µM | 11.7 µM | 20.6 µM | 15.4 µM | 10.9 µM |  |  |  |
| CCCCc1ccc(N=C(N)N)cc1 | 93.5 µM |  | > 100 µM | > 100 µM | > 100 µM | 90.7 µM | 91.5 µM | 63.9 µM | > 100 µM | 67 µM |  | > 100 µM | > 100 µM | 46.3 µM | > 100 µM |  | > 100 µM |  |  |  |
| Cc1ccc2c(c1)SC1=Nc3sc4cc(C)ccc4[n+]3CN12 | 28.4 µM | 25.4 µM | > 100 µM | 68 µM | 53.1 µM | 18.3 µM | 75.2 µM | 48 µM | 35.5 µM |  |  | 8.75 µM | 92.8 µM | > 100 µM | > 100 µM | > 100 µM | 20.2 µM |  |  |  |
| c1ccc2c(CSCc3cccc4ccccc34)cccc2c1 | > 100 µM |  | > 100 µM | > 100 µM | > 100 µM | > 100 µM | > 100 µM | > 100 µM | > 100 µM | > 100 µM | > 100 µM | > 100 µM | > 100 µM |  |  | > 100 µM | > 100 µM | > 100 µM |  |  |
| CCCCN1C(=O)C2Cc3c([nH]c4ccccc34)C(c3cccc(O)c3)N2C1=O (configuration not stated) | 35.7 µM | 34.3 µM | 32.8 µM | 33.8 µM | 38.7 µM | 34.2 µM | 42.3 µM | 33.6 µM | 69.1 µM | 36.3 µM | 69.6 µM | 51.9 µM | 31.2 µM | 36.2 µM | 30 µM |  | 32.4 µM | 45.6 µM |  |  |
| C[C@H]1C[C@@H]2[C@H]([C@@H](O)C[C@@]3(C)[C@H]2CC[C@]3(O)C(=O)CO)[C@@]2(C)C=CC(=O)C=C12 | > 100 µM |  |  | > 100 µM | > 100 µM |  | > 100 µM | > 100 µM |  |  | > 100 µM |  |  |  | > 100 µM |  |  | > 100 µM | > 100 µM | > 100 µM |
| CC(=O)Nc1ccc2c(c1)/C(=C\c1ccc([N+](C)(C)C)cc1)c1ccccc1-2 | > 100 µM |  | > 100 µM | 79.9 µM | > 100 µM | > 100 µM | 74.4 µM | > 100 µM | 88.3 µM | > 100 µM | > 100 µM | 90.1 µM | > 100 µM | > 100 µM | > 100 µM | > 100 µM | > 100 µM |  |  |  |
| CCOC(=O)c1cnc(N(C)C)nc1SC(=N)N | > 100 µM | > 100 µM | > 100 µM | > 100 µM | > 100 µM | > 100 µM | > 100 µM | > 100 µM | > 100 µM | > 100 µM | > 100 µM | > 100 µM | > 100 µM | > 100 µM | > 100 µM | > 100 µM | > 100 µM | > 100 µM |  |  |
